Results: ChEMBL document CHEMBL1201862, “PubChem BioAssay data set” (2004)
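A five-concentration, 48-hour dose response in 96-well plates underlies each endpoint, interpolated linearly between surrounding concentrations. Abbreviation: GI50, concentration required for 50% inhibition of growth.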 Activity calls are given as the source filed them. Rule as the data show it: active = GI50 up to about 1.1 µM and inactive = higher.

Assays:
Assay in all cases: growth of human tumour cells (NCI), 48 h
786-0 = tested on: 786-0
A498 = tested on: A498
A549 = tested on: A549
ACHN = tested on: ACHN
BT-549 = tested on: BT-549
CAKI-1 = tested on: CAKI-1
CCRF-CEM = tested on: CCRF-CEM
COLO 205 = tested on: COLO 205
DU-145 = tested on: DU-145
EKVX = tested on: EKVX
HCC 2998 = tested on: HCC 2998
HCT-116 = tested on: HCT-116
HCT-15 = tested on: HCT-15
HL-60 = tested on: HL-60
HOP-62 = tested on: HOP-62
HOP-92 = tested on: HOP-92
HT-29 = tested on: HT-29
Hs-578T = tested on: Hs-578T
IGROV-1 = tested on: IGROV-1
K562 = tested on: K562
KM12 = tested on: KM12
LOX IMVI = tested on: LOX IMVI
M14 = tested on: M14
MCF7 = tested on: MCF7
MDA-MB-231 = tested on: MDA-MB-231
MDA-MB-435 = tested on: MDA-MB-435
MDA-N = tested on: MDA-N
MOLT-4 = tested on: MOLT-4
Malme-3M = tested on: Malme-3M
NCI-H23 = tested on: NCI-H23
NCI-H460 = tested on: NCI-H460
NCI-H522 = tested on: NCI-H522
NCI/ADR-RES = tested on: NCI/ADR-RES
OVCAR-3 = tested on: OVCAR-3
OVCAR-5 = tested on: OVCAR-5
OVCAR-8 = tested on: OVCAR-8
PC-3 = tested on: PC-3
RPMI-8226 = tested on: RPMI-8226
RXF 393 = tested on: RXF 393
SF-268 = tested on: SF-268
SF-295 = tested on: SF-295
SF-539 = tested on: SF-539
SK-MEL-28 = tested on: SK-MEL-28
SK-MEL-2 = tested on: SK-MEL-2
SK-MEL-5 = tested on: SK-MEL-5
SK-OV-3 = tested on: SK-OV-3
SN12C = tested on: SN12C
SNB-19 = tested on: SNB-19
SNB-75 = tested on: SNB-75
SR = tested on: SR
SW-620 = tested on: SW-620
T47D = tested on: T47D
TK-10 = tested on: TK-10
U-251 = tested on: U-251
UACC-257 = tested on: UACC-257
UACC-62 = tested on: UACC-62
UO-31 = tested on: UO-31
NCI-H226 = tested on: NCI-H226
OVCAR-4 = tested on: OVCAR-4

CC(C)(C)OC(=O)NC(Cc1ccc(OCc2ccccc2)cn1)C(=O)N1CCCCC1 (stereo not drawn) was tested, and the GI50 (786-0) was 56 µM (inactive), the GI50 (A498) was 34.5 µM (inactive) and the GI50 (A549) was 49.7 µM (inactive). For the same compound, the GI50 (ACHN) was 41.4 µM (inactive), the GI50 (BT-549) was 24.5 µM (inactive) and the GI50 (CAKI-1) was 60.4 µM (inactive). For the same compound, the GI50 (CCRF-CEM) was 31.8 µM (inactive), the GI50 (COLO 205) was 18.6 µM (inactive) and the GI50 (DU-145) was 33 µM (inactive). For the same compound, the GI50 (EKVX) was 37.1 µM (inactive), the GI50 (HCC 2998) was 19.9 µM (inactive) and the GI50 (HCT-116) was 40.8 µM (inactive). The GI50 (HCT-15) was 37.6 µM, the GI50 (HL-60) was 27 µM (inactive) and the GI50 (HOP-62) was 49.9 µM (inactive). For the same compound, the GI50 (HOP-92) was 39.9 µM (inactive), the GI50 (HT-29) was 32 µM (inactive) and the GI50 (Hs-578T) was 67.3 µM (inactive). For the same compound, the GI50 (IGROV-1) was 53.7 µM (inactive), the GI50 (K562) was 31.7 µM (inactive) and the GI50 (KM12) was 30.9 µM (inactive). For the same compound, the GI50 (LOX IMVI) was 25.4 µM (inactive), the GI50 (M14) was 37.8 µM (inactive) and the GI50 (MCF7) was 31.6 µM (inactive). For the same compound, the GI50 (MDA-MB-231) was 43.4 µM (inactive), the GI50 (MDA-MB-435) was 19.4 µM (inactive) and the GI50 (MDA-N) was 28.1 µM (inactive). For the same compound, the GI50 (MOLT-4) was 19.5 µM (inactive), the GI50 (Malme-3M) was 40.5 µM (inactive) and the GI50 (NCI-H23) was 31.1 µM (inactive). For the same compound, the GI50 (NCI-H460) was 33.7 µM (inactive), the GI50 (NCI-H522) was 32.1 µM (inactive) and the GI50 (NCI/ADR-RES) was 20.9 µM (inactive). The GI50 (OVCAR-3) was 35.6 µM (inactive), the GI50 (OVCAR-5) was 65.2 µM (inactive) and the GI50 (OVCAR-8) was 35.6 µM (inactive). The GI50 (PC-3) was 22.2 µM (inactive), the GI50 (RPMI-8226) was 20.7 µM (inactive) and the GI50 (RXF 393) was 19.5 µM (inactive). For the same compound, the GI50 (SF-268) was 65.6 µM (inactive), the GI50 (SF-295) was 30.5 µM (inactive) and the GI50 (SF-539) was 41.3 µM (inactive). The GI50 (SK-MEL-28) was 54.3 µM (inactive), the GI50 (SK-MEL-2) was 25.5 µM (inactive) and the GI50 (SK-MEL-5) was 16.4 µM (inactive). The GI50 (SK-OV-3) was 58.6 µM (inactive), the GI50 (SN12C) was 37.8 µM (inactive) and the GI50 (SNB-19) was 80.5 µM (inactive). The GI50 (SNB-75) was 20.5 µM (inactive), the GI50 (SR) was 28.6 µM (inactive) and the GI50 (SW-620) was 89.3 µM (inactive). For the same compound, the GI50 (T47D) was 12.1 µM (inactive), the GI50 (TK-10) was 37.1 µM (inactive) and the GI50 (U-251) was 42.4 µM (inactive). The GI50 (UACC-257) was 19.6 µM (inactive), the GI50 (UACC-62) was 29.1 µM (inactive) and the GI50 (UO-31) was 27.9 µM (inactive).

In the case of Cc1ccc2c(c1)C(=O)/C(=N/Nc1ccc(Cl)cc1)CCO2, the GI50 (786-0) is reported as 37.1 µM (inactive), the GI50 (A498) is reported as > 100 µM (inactive) and the GI50 (A549) is reported as 94.6 µM (inactive). The GI50 (ACHN) was > 100 µM (inactive), the GI50 (BT-549) was > 100 µM (inactive) and the GI50 (CAKI-1) was > 100 µM (inactive). For the same compound, the GI50 (CCRF-CEM) was 46.7 µM (inactive), the GI50 (COLO 205) was 63.5 µM (inactive) and the GI50 (DU-145) was > 100 µM (inactive). The GI50 (EKVX) was > 100 µM (inactive), the GI50 (HCC 2998) was 54.1 µM (inactive) and the GI50 (HCT-116) was 50.7 µM (inactive). For the same compound, the GI50 (HCT-15) was 60 µM, the GI50 (HL-60) was 38.9 µM (inactive) and the GI50 (HOP-62) was > 100 µM (inactive). For the same compound, the GI50 (HOP-92) was 72.4 µM (inactive), the GI50 (HT-29) was 26.4 µM (inactive) and the GI50 (Hs-578T) was 35.4 µM (inactive). The GI50 (IGROV-1) was > 100 µM (inactive), the GI50 (K562) was 28 µM (inactive) and the GI50 (KM12) was 75 µM (inactive). For the same compound, the GI50 (LOX IMVI) was 35.2 µM (inactive), the GI50 (M14) was 44 µM (inactive) and the GI50 (MCF7) was 58.7 µM (inactive). The GI50 (MDA-MB-231) was > 100 µM (inactive), the GI50 (MDA-MB-435) was 71 µM (inactive) and the GI50 (MDA-N) was 65.3 µM (inactive). The GI50 (MOLT-4) was 71.3 µM (inactive), the GI50 (Malme-3M) was 46.7 µM (inactive) and the GI50 (NCI-H226) was > 100 µM (inactive). The GI50 (NCI-H23) was > 100 µM (inactive), the GI50 (NCI-H460) was 92.9 µM (inactive) and the GI50 (NCI-H522) was 56.1 µM (inactive). The GI50 (NCI/ADR-RES) was > 100 µM (inactive), the GI50 (OVCAR-3) was > 100 µM (inactive) and the GI50 (OVCAR-4) was 80.4 µM (inactive). The GI50 (OVCAR-5) was 69.7 µM (inactive), the GI50 (OVCAR-8) was > 100 µM (inactive) and the GI50 (PC-3) was 54.5 µM (inactive). The GI50 (RPMI-8226) was 36.3 µM (inactive), the GI50 (SF-268) was > 100 µM (inactive) and the GI50 (SF-295) was 24.3 µM (inactive). The GI50 (SF-539) was > 100 µM (inactive), the GI50 (SK-MEL-28) was > 100 µM (inactive) and the GI50 (SK-MEL-2) was 21.2 µM (inactive). The GI50 (SK-MEL-5) was 23.3 µM (inactive), the GI50 (SK-OV-3) was > 100 µM (inactive) and the GI50 (SN12C) was > 100 µM (inactive). The GI50 (SNB-19) was > 100 µM (inactive), the GI50 (SNB-75) was > 100 µM (inactive) and the GI50 (SR) was 44.8 µM (inactive). For the same compound, the GI50 (SW-620) was > 100 µM (inactive), the GI50 (T47D) was 13.3 µM (inactive) and the GI50 (TK-10) was > 100 µM (inactive). The GI50 (U-251) was > 100 µM (inactive), the GI50 (UACC-257) was > 100 µM (inactive) and the GI50 (UACC-62) was 50.1 µM (inactive). The GI50 (UO-31) was > 100 µM (inactive).

COc1cc(C2S/C(=C/c3ccccc3)C(=O)N2Cc2ccccc2)cc(OC)c1OC (stereo not drawn) was tested, and the GI50 (786-0) was 41.1 µM (inactive), the GI50 (A498) was 45.5 µM (inactive) and the GI50 (A549) was 27.3 µM (inactive). For the same compound, the GI50 (ACHN) was 64.7 µM (inactive), the GI50 (BT-549) was 54.5 µM (inactive) and the GI50 (CAKI-1) was 36.8 µM (inactive). The GI50 (CCRF-CEM) was 23.1 µM (inactive), the GI50 (COLO 205) was 30.1 µM (inactive) and the GI50 (DU-145) was 47 µM (inactive). The GI50 (EKVX) was 55.6 µM (inactive), the GI50 (HCC 2998) was 21 µM (inactive) and the GI50 (HCT-116) was 17.5 µM (inactive). The GI50 (HCT-15) was 40.1 µM, the GI50 (HL-60) was 21.2 µM (inactive) and the GI50 (HOP-62) was 26.2 µM (inactive). For the same compound, the GI50 (HOP-92) was 28.8 µM (inactive), the GI50 (HT-29) was 53.5 µM (inactive) and the GI50 (Hs-578T) was 30.2 µM (inactive). The GI50 (IGROV-1) was 42.2 µM (inactive), the GI50 (K562) was 21.8 µM (inactive) and the GI50 (KM12) was 36.1 µM (inactive). The GI50 (LOX IMVI) was 32.1 µM (inactive), the GI50 (M14) was 33.1 µM (inactive) and the GI50 (MCF7) was 61.1 µM (inactive). The GI50 (MDA-MB-231) was > 100 µM (inactive), the GI50 (MDA-MB-435) was 25.5 µM (inactive) and the GI50 (MDA-N) was 19.3 µM (inactive). For the same compound, the GI50 (MOLT-4) was 18.4 µM (inactive), the GI50 (NCI-H226) was > 100 µM (inactive) and the GI50 (NCI-H23) was 67.3 µM (inactive). For the same compound, the GI50 (NCI-H522) was 16.1 µM (inactive), the GI50 (NCI/ADR-RES) was 26.4 µM (inactive) and the GI50 (OVCAR-4) was 23.2 µM (inactive). For the same compound, the GI50 (OVCAR-5) was > 100 µM (inactive), the GI50 (OVCAR-8) was 37.6 µM (inactive) and the GI50 (PC-3) was 28.2 µM (inactive). For the same compound, the GI50 (RPMI-8226) was 21.5 µM (inactive), the GI50 (SF-268) was 33.1 µM (inactive) and the GI50 (SF-295) was 28.5 µM (inactive). For the same compound, the GI50 (SK-MEL-28) was 88.9 µM (inactive), the GI50 (SK-MEL-2) was 39.1 µM (inactive) and the GI50 (SK-MEL-5) was 28.2 µM (inactive). The GI50 (SK-OV-3) was 42.1 µM (inactive), the GI50 (SN12C) was 39.2 µM (inactive) and the GI50 (SNB-19) was 57.9 µM (inactive). For the same compound, the GI50 (SNB-75) was 18.5 µM (inactive), the GI50 (SR) was 20 µM (inactive) and the GI50 (T47D) was 5.07 µM (inactive). For the same compound, the GI50 (TK-10) was > 100 µM (inactive), the GI50 (U-251) was 32.7 µM (inactive) and the GI50 (UACC-257) was > 100 µM (inactive). The GI50 (UACC-62) was 23.5 µM (inactive) and the GI50 (UO-31) was 24.4 µM (inactive).
